Test results: patent US5591741A, “Fungicidal spiroheterocyclic derivatives” (American Cyanamid Company, priority 1993, dated 1997)

How the values were obtained:
Plasmopara viticola = test: Antisporulant activity against vine downy mildew (PVA); type: in vivo; settings: vine leaves, antisporulant foliar spray, 600 ppm, 750 l/ha
Procedure, shortened: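 Cabernet Sauvignon vines (~8 cm) inoculated on lower leaf surfaces with 5×10^4 zoosporangia/ml, held 24 h at 21° C high humidity then 24 h glasshouse. Infected leaves sprayed underside with 600 ppm compound in 1:1 water/acetone, 0.04% Tween 20, 750 l/ha; 96 h glasshouse, 24 h humidity. Sporulating leaf area rated versus control.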

Alternaria solani = test: Activity against tomato early blight (AS); type: in vivo; settings: Table VI; tomato seedlings, contact prophylactic foliar spray, 4 days
Procedure, shortened: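 Foliar contact prophylactic spray on tomato seedlings (cv Outdoor Girl, second true leaf expanded) in acetone/water 50:50 with 0.04% Tween 20; 24 h at 20° C, 40% R.H., then inoculation with 10^4 spores/ml A. solani conidia. Kept moist at 21° C; lesion cover rated 4 days post-inoculation against untreated or diluent-sprayed controls.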

Botrytis cinerea = test: Direct protectant activity against broad bean grey mould (BCB); type: in vivo; settings: direct protectant foliar spray, 600 ppm, 4 days
Procedure, shortened: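 Broad bean plants (cv The Sutton, two leaf pairs) sprayed on upper leaf surfaces at 600 ppm, then inoculated 24 h later with 10^6 conidia/ml. Kept 4 days at 22 °C, high humidity; disease control rated from % leaf area with lesions against untreated or diluent controls.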

Leptosphaeria nodorum = test: Activity against wheat leafspot (LN); type: in vivo; settings: direct therapeutic foliar spray, 600 ppm, 6-8 days
Procedure, shortened: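 Wheat cv Norman at single-leaf stage spray-inoculated with 1.5×10^6 conidia/ml, held 24 h at high humidity, then sprayed therapeutically with test compound at 600 ppm. Kept 6-8 days at 22° C, 70% humidity; lesion density per leaf rated against untreated or diluent-sprayed controls.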

[1] = tested on: Erysiphe graminis f.sp. hordei; test: Activity against barley powdery mildew, direct therapeutic (EGT); type: in vivo; settings: direct therapeutic foliar spray, 600 ppm, up to 7 days
Procedure, shortened: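 Barley seedlings (cv. Golden Promise, single-leaf stage) were dusted with mildew conidia one day before a therapeutic foliar spray of 600 ppm compound. Plants were kept at 18 °C and 40% humidity for up to 7 days, and sporulating leaf area was rated against untreated or diluent-sprayed controls.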

[2] = tested on: Erysiphe graminis f.sp. hordei; test: Direct protectant activity against barley powdery mildew (EGP); type: in vivo; settings: direct protectant foliar spray, 8 days
Procedure, shortened: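 Barley seedlings (cv Golden Promise, single-leaf stage) were foliar-sprayed, held 24 h at 18 °C/40% RH, then dusted with mildew conidia. After 8 days at 18 °C/40% RH, sporulating leaf area was scored as a rating against untreated or diluent-sprayed controls.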

Phytophthora infestans = type: in vivo; settings: tomato, direct protectant foliar spray
[3] = tested on: Pseudocercosporella herpotrichoides; test: Activity against wheat eyespot in-vitro (PHI); type: cell-based; settings: 10 ppm, 10 days, 20° C., mycelial growth
Procedure, shortened: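 P. herpotrichoides mycelial fragments (5×10^4/ml) grown in half-strength PDB with compound at 10 ppm final, added from acetone. Incubated 10 days at 20 °C; mycelial growth rated against untreated or diluent controls.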

Rhizoctonia solani = test: Activity against Rhizoctonia in-vitro (RSI); type: cell-based; settings: 10 ppm, 10 days, 20° C., mycelial growth
Procedure, shortened: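 R. solani mycelial fragments (5×10^4/ml) in half-strength Potato Dextrose Broth with compound added from acetone to 10 ppm final. Mycelial growth assessed after 10 days at 20° C, rated against untreated or diluent control.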

Venturia inaequalis = test: Activity against apple scab in-vitro (VII); type: cell-based; settings: 10 ppm, 10 days, 20° C., mycelial growth
Procedure, shortened: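 Compound in acetone was tested at 10 ppm final in half-strength Potato Dextrose Broth inoculated with V. inaequalis mycelial fragments and spores at 5×10^4 propagules/ml. After 10 days at 20° C, mycelial growth was rated against untreated or diluent controls.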

Pyricularia oryzae = type: in vivo; settings: rice seedlings, direct therapeutic foliar spray, 600 ppm, 4-5 days

Row | SMILES | disease control rating PVA (Plasmopara viticola) | disease control rating AS (Alternaria solani) | disease control rating BCB (Botrytis cinerea) | disease control rating LN (Leptosphaeria nodorum) | disease control rating EGT [1] | disease control rating EGP [2] | disease control rating PIP (Phytophthora infestans) | disease control rating PHI [3] | disease control rating RSI (Rhizoctonia solani) | disease control rating VII (Venturia inaequalis) | disease control rating PO (Pyricularia oryzae)
1 | CC(C)(C)C1CCC2(CC1)CC(CNC1CCCCC1)CO2 (centres unmarked) [Compound 185] | 0 (less than 50% disease control) | 1 (about 50-80% disease control) | 1 (about 50-80% disease control) | 0 (less than 50% disease control) | 2 (greater than 80% disease control) | 2 (greater than 80% disease control) | 0 (less than 50% disease control) | 0 (less than 50% disease control) | 0 (less than 50% disease control) | 0 (less than 50% disease control) | 0 (less than 50% disease control)
2 | CC(C)(C)C1CCC2(CC1)CC(N1CCCC1)CO2 (centres unmarked) [Compound 9] | 0 (less than 50% disease control) | 0 (less than 50% disease control) | 0 (less than 50% disease control) | 1 (about 50-80% disease control) | 2 (greater than 80% disease control) | 2 (greater than 80% disease control) | 0 (less than 50% disease control) | 1 (about 50-80% disease control) | 0 (less than 50% disease control) | 1 (about 50-80% disease control) | 0 (less than 50% disease control)
3 | CC(C)(C)C1CCC2(CC1)CC(NCCC1=CCCCC1)CO2 (centres unmarked) [Compound 108] | 0 (less than 50% disease control) | 0 (less than 50% disease control) | 2 (greater than 80% disease control) | 0 (less than 50% disease control) | 2 (greater than 80% disease control) | 2 (greater than 80% disease control) | 2 (greater than 80% disease control) | 1 (about 50-80% disease control) | 1 (about 50-80% disease control) | 1 (about 50-80% disease control) | 0 (less than 50% disease control)
4 | CC(C)(C)C1CCC(NC2COC3(CCC(C(C)(C)C)CC3)C2)CC1 (centres unmarked) [Compound 109] | 0 (less than 50% disease control) | 1 (about 50-80% disease control) | 2 (greater than 80% disease control) | 0 (less than 50% disease control) | 2 (greater than 80% disease control) | 2 (greater than 80% disease control) | 2 (greater than 80% disease control) | 1 (about 50-80% disease control) | 1 (about 50-80% disease control) | 2 (greater than 80% disease control) | 0 (less than 50% disease control)
5 | CCCCc1ccc(CNC2COC3(CCC(C(C)(C)C)CC3)C2)cc1 (centres unmarked) [Compound 26] | 0 (less than 50% disease control) | 1 (about 50-80% disease control) | 0 (less than 50% disease control) | 0 (less than 50% disease control) | 2 (greater than 80% disease control) | 2 (greater than 80% disease control) | 0 (less than 50% disease control) | 1 (about 50-80% disease control) | 0 (less than 50% disease control) | 1 (about 50-80% disease control) | 0 (less than 50% disease control)
6 | CCCCN(CCCC)C1COC2(CCC(C(C)(C)C)CC2)C1 (centres unmarked) [Compound 12] | 0 (less than 50% disease control) | 0 (less than 50% disease control) | 2 (greater than 80% disease control) | 0 (less than 50% disease control) | 2 (greater than 80% disease control) | 2 (greater than 80% disease control) | 0 (less than 50% disease control) | 0 (less than 50% disease control) | 0 (less than 50% disease control) | 2 (greater than 80% disease control) | 0 (less than 50% disease control)
7 | CCCCCCNC1COC2(CCC(C(C)(C)C)CC2)C1 (centres unmarked) [Compound 37] | 0 (less than 50% disease control) | 0 (less than 50% disease control) | 1 (about 50-80% disease control) | 0 (less than 50% disease control) | 2 (greater than 80% disease control) | 2 (greater than 80% disease control) | 0 (less than 50% disease control) | 1 (about 50-80% disease control) | 0 (less than 50% disease control) | 0 (less than 50% disease control) | 0 (less than 50% disease control)
8 | CC(C)(C)CCNC1COC2(CCC(C(C)(C)C)CC2)C1 (centres unmarked) [Compound 111] | 0 (less than 50% disease control) | 0 (less than 50% disease control) | 1 (about 50-80% disease control) | 0 (less than 50% disease control) | 2 (greater than 80% disease control) | 2 (greater than 80% disease control) | 2 (greater than 80% disease control) | 0 (less than 50% disease control) | 1 (about 50-80% disease control) | 1 (about 50-80% disease control) | 0 (less than 50% disease control)
9 | C1CCN(C2COC3(CCCCC3)C2)CC1 (centres unmarked) [Compound 35] | 0 (less than 50% disease control) | 0 (less than 50% disease control) | 0 (less than 50% disease control) | 0 (less than 50% disease control) | 0 (less than 50% disease control) | 0 (less than 50% disease control) | 0 (less than 50% disease control) | 0 (less than 50% disease control) | 0 (less than 50% disease control) | 0 (less than 50% disease control) | 0 (less than 50% disease control)
10 | CCCCCCN(C)C1COC2(CCC(C(C)(C)CC)CC2)C1 (centres unmarked) [Compound 60] | 0 (less than 50% disease control) | 0 (less than 50% disease control) | 0 (less than 50% disease control) | 1 (about 50-80% disease control) | 2 (greater than 80% disease control) | 2 (greater than 80% disease control) | 0 (less than 50% disease control) | 0 (less than 50% disease control) | 2 (greater than 80% disease control) | 1 (about 50-80% disease control) | 0 (less than 50% disease control)
